Publication PMC7261474 (Journal of medicinal chemistry, 2020)
Several values for one entry are separate records, joined by “and”; a condition that tells them apart may be missing. Equal values may be shown once. Read-outs that look alike come from different tables or passages of the source. Where a SMILES comes first, the peptide text is derived from it. [ ]: non-standard residue; d: D form. The star is where a group is joined. hPhe = N[CH](CCc1ccccc1)C(=O)O; 4Pal = N[CH](Cc1ccncc1)C(=O)O; AMC = Cc1cc(=O)oc2cc(N*)ccc12; Cbz = O=C(OCc1ccccc1)*

Assays:
cruzain [1] = target: T1, cruzain (Trypanosoma cruzi, UniProt P25779); assay: Cruzain inhibition/inactivation, time courses with Cbz-Phe-Arg-AMC
[2] = Covalent adduct formation with glutathione; assay type: physicochemical; conditions: for reaction with GSH (adduct formation): 90 min incubation, 2:1 or 10:1 molar ratio GSH/inhibitor; for rate of formation of GSH adduct: 2:1 molar ratio GSH/inhibitor; for Keq of GSH adduct (apparent equilibrium): 2:1 molar ratio, equilibrium in 90 min
[3] = test system: T. cruzi (epimastigote forms, strain Y, ATCC 50832GFP); assay: Growth inhibition of T. cruzi epimastigotes in axenic culture; assay type: cell-based, Trypanosoma cruzi; conditions: 5 days
[4] = test system: Primary human dermal fibroblast (HDF) cells; assay: Human cell toxicity; assay type: cell-based; conditions: CC50 in human dermal fibroblasts / EC50 in infected cardiomyoblasts
human cathepsin B = human cathepsin B (Homo sapiens, UniProt P07858); assay: Human cathepsin B assay with Cbz-Phe-Arg-AMC; assay type: biochemical; conditions: pH 5.5, 25 °C, 10% DMSO
cruzain [5] = target: T1, cruzain; assay: Cruzain-catalysed hydrolysis of fluorogenic dipeptide-AMC substrates; assay type: biochemical; conditions: for Km / kcat: pH 7.5, 25 °C, 10% DMSO (v/v); for kcat rel: relative to S1 Cbz-Phe-Arg-AMC, S6 and S12 from 2% DMSO data
human cathepsin S = human cathepsin S (Homo sapiens, UniProt P25774); assay: Human cathepsin S assay with Cbz-Phe-Arg-AMC; assay type: biochemical; conditions: pH 5.5, 25 °C, 10% DMSO
human cathepsin L = human cathepsin L (Homo sapiens, UniProt P07711); assay: Human cathepsin L assay with Cbz-Phe-Arg-AMC; assay type: biochemical; conditions: pH 5.5, 25 °C, 10% DMSO
cruzain [6] = target: T1, cruzain; conditions: 2% DMSO (v/v); ref [40]; cited from earlier work
[7] = test system: T. cruzi strain Ca-I/72 in C2C12 mouse cardiomyoblasts; conditions: ref [55]; cited from earlier work

T1 sequence (P25779 123-467): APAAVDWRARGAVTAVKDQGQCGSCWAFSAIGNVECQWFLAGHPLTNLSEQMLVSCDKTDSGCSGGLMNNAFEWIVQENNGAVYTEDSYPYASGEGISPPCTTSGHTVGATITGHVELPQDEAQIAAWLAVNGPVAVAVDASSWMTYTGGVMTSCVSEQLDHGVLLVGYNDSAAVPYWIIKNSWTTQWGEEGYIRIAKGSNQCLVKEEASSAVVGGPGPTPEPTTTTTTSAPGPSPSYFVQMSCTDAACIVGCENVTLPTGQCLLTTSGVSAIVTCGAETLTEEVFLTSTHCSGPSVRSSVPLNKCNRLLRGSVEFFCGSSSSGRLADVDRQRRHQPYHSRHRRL
Sequence of human cathepsin L (P07711 114-333): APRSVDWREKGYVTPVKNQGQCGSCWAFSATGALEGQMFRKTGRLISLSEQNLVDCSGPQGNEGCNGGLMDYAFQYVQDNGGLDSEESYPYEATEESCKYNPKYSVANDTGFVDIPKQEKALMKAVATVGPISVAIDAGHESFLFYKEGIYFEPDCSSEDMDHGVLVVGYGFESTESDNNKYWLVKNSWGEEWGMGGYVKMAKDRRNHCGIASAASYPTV
Sequence of human cathepsin S (P25774 115-331): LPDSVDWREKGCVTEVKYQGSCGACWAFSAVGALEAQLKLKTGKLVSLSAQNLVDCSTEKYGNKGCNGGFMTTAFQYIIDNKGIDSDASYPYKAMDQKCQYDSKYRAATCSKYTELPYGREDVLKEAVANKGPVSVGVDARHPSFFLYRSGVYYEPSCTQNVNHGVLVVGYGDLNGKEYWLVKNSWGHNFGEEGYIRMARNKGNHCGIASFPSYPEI

SMILES | Km (cruzain [5]) | kcat (cruzain [5]) | kcat rel (cruzain [5]) | further results
O=C(N[C@@H](Cc1ccccc1)C(=O)NC(CCc1ncccn1)Cc1ccccc1)OCc1ccccc1 (stereo in doubt) [Compound 27, Benzyl ((S)-1-Oxo-3-phenyl-1-(((S)-1-phenyl-4-(pyrimidin-2-yl)-butan-2-yl)amino)propan-2-yl)carbamate] |  |  |  | Ki (cruzain [1]): 22000 nM
O=C(N[C@@H](Cc1ccccc1)C(=O)N[C@H](/C=C/c1ncccn1)Cc1ccccc1)OCc1ccccc1 [Compound 7, Benzyl ((S)-1-Oxo-3-phenyl-1-(((S,E)-1-phenyl-4-(pyrimidin-2-yl)-but-3-en-2-yl)amino)propan-2-yl)carbamate] |  |  |  | reaction with GSH (adduct formation) ([2]; pH 8.0): no adduct was observed
O=C(N[C@@H](Cc1ccccc1)C(=O)N[C@H](/C=C/c1ccccn1)Cc1ccccc1)OCc1ccccc1 [Compound 11, Benzyl ((S)-1-Oxo-3-phenyl-1-(((S,E)-1-phenyl-4-(pyridin-2-yl)but-3-en-2-yl)amino)propan-2-yl)carbamate] |  |  |  | reaction with GSH (adduct formation) ([2]; pH 8.0): no adduct was observed; T. cruzi axenic culture EC50 [3]: poorly effective
C[n+]1ccccc1/C=C/[C@H](Cc1ccccc1)NC(=O)[C@H](Cc1ccccc1)NC(=O)OCc1ccccc1.[I-] [Compound 12, 2-((S,E)-3-((S)-2-(((Benzyloxy)carbonyl)amino)-3-phenylpropanamido)-4-phenylbut-1-en-1-yl)-1-methylpyridin-1-ium Iodide] |  |  |  | rate of formation of GSH adduct ([2]; pH 8.0): 37 M⁻¹ s⁻¹; Keq of GSH adduct (apparent equilibrium) ([2]; pH 8.0): 7400 M⁻¹; conversion to GSH adduct ([2]; 20 min, 10:1 molar ratio of GSH to compound): 97%; selectivity index CC50/EC50 [4]: >10
O=C(N[C@@H](Cc1ccccc1)C(=O)N[C@H](/C=C/c1ccccn1)CCc1ccccc1)OCc1ccccc1 [Compound 13, Benzyl ((S)-1-Oxo-3-phenyl-1-(((S,E)-5-phenyl-1-(pyridin-2-yl)pent-1-en-3-yl)amino)propan-2-yl)carbamate] |  |  |  | T. cruzi axenic culture EC50 [3]: poorly effective
C[n+]1ccccc1/C=C/[C@H](CCc1ccccc1)NC(=O)[C@H](Cc1ccccc1)NC(=O)OCc1ccccc1 [Compound 15, 2-((S,E)-3-((S)-2-(((Benzyloxy)carbonyl)amino)-3-phenylpropanamido)-5-phenylpent-1-en-1-yl)-1-methylpyridin-1-ium] |  |  |  | Ki (cruzain [1]): 600 ± 200 nM; k3 (eq 6) (cruzain [1]; pH 7.5, global fitting to eq 6): 0.0012 ± 0.0004 s⁻¹; k4 (eq 6) (cruzain [1]; pH 7.5, global fitting to eq 6): 0.00019 ± 0.00005 s⁻¹; rate of formation of GSH adduct ([2]; pH 8.0): 54 M⁻¹ s⁻¹; Keq of GSH adduct (apparent equilibrium) ([2]; pH 8.0): 2400 M⁻¹; selectivity index CC50/EC50 [4]: >20
O=C(N[C@@H](Cc1ccccc1)C(=O)N[C@H](/C=C/c1cc(C(F)(F)F)ccn1)CCc1ccccc1)OCc1ccccc1 [Compound 17, Benzyl ((S)-1-Oxo-3-phenyl-1-(((S,E)-5-phenyl-1-(4-(trifluoromethyl)pyridin-2-yl)pent-1-en-3-yl)amino)propan-2-yl)-carbamate] |  |  |  | reaction with GSH (adduct formation) ([2]; pH 8.0): no adduct was observed
O=C(N[C@@H](Cc1ccccc1)C(=O)N[C@H](/C=C/c1ncco1)Cc1ccccc1)OCc1ccccc1 [Compound 24, Benzyl ((S)-1-(((S,E)-4-(Oxazol-2-yl)-1-phenylbut-3-en-2-yl)-amino)-1-oxo-3-phenylpropan-2-yl)carbamate] |  |  |  | T. cruzi axenic culture EC50 [3]: poorly effective
O=C(N[C@@H](Cc1ccccc1)C(=O)N[C@H](/C=C/c1nccs1)Cc1ccccc1)OCc1ccccc1 [Compound 25, Benzyl ((S)-1-Oxo-3-phenyl-1-(((S,E)-1-phenyl-4-(thiazol-2-yl)-but-3-en-2-yl)amino)propan-2-yl)carbamate] |  |  |  | reaction with GSH (adduct formation) ([2]; pH 8.0): no adduct was observed
C[n+]1ccsc1/C=C/[C@H](Cc1ccccc1)NC(=O)[C@H](Cc1ccccc1)NC(=O)OCc1ccccc1.[I-] [Compound 26, 2-((S,E)-3-((S)-2-(((Benzyloxy)carbonyl)amino)-3-phenylpropanamido)-4-phenylbut-1-en-1-yl)-3-methylthiazol-3-ium Iodide] |  |  |  | rate of formation of GSH adduct ([2]; pH 8.0): 15 M⁻¹ s⁻¹; Keq of GSH adduct (apparent equilibrium) ([2]; pH 8.0): 930 M⁻¹
CN1CCN(C(=O)N[C@@H](Cc2ccccc2)C(=O)N[C@H](/C=C/S(=O)(=O)c2ccccc2)CCc2ccccc2)CC1 [K11777, reference compound] |  |  |  | rate of glutathione adduct formation k ([2]; 0.5 mM compound, 1 mM GSH, pH 8.0): 0.00028 s⁻¹
Cc1cc(=O)oc2cc(NC(=O)[C@H](CCCN=C(N)N)NC(=O)[C@H](Cc3ccccc3)NC(=O)OCc3ccccc3)ccc12 [S1, Cbz-Phe-Arg-AMC, reference compound] (Cbz-Phe-Arg-{AMC}) | 0.89 ± 0.09 µM | 9.6 ± 0.2 s⁻¹ | 1.00 | Michaelis constant, cathepsin B (human cathepsin B): 150 µM; Michaelis constant, cathepsin S (human cathepsin S): 60 µM; Michaelis constant, cathepsin L (human cathepsin L): 2.9 µM
Cc1cc(=O)oc2cc(NC(=O)[C@H](CCc3ccccc3)NC(=O)[C@H](Cc3ccccc3)NC(=O)OCc3ccccc3)ccc12 [S2, Cbz-Phe-hPhe-AMC] (Cbz-Phe-[hPhe]-{AMC}) | 0.26 ± 0.06 µM | 2.0 ± 0.2 s⁻¹ | 0.21 | 
Cc1cc(=O)oc2cc(NC(=O)C(CCc3ccccc3)NC(=O)C(CC(C)C)NC(=O)OCc3ccccc3)ccc12 (stereo not drawn) [S3, Cbz-Leu-hPhe-AMC] (Cbz-Leu-[hPhe]-{AMC}; configuration not given here) | 0.8 ± 0.2 µM | 3.0 ± 0.2 s⁻¹ |  | 
Cc1cc(=O)oc2cc(NC(=O)[C@H](CCCN=C(N)N)NC(=O)[C@H](CC(C)C)NC(=O)OCc3ccccc3)ccc12 [S4, Cbz-Leu-Arg-AMC] | 2.2 ± 0.3 µM | 8.4 ± 0.4 s⁻¹ | 0.88 | 
Cc1cc(=O)oc2cc(NC(=O)C(Cc3ccncc3)NC(=O)C(Cc3ccccc3)NC(=O)OCc3ccccc3)ccc12 (stereo not drawn) [S5, Cbz-Phe-(4-Pyr)Ala-AMC] (Cbz-Phe-[4Pal]-{AMC}; configuration not given here) | 3.7 ± 0.5 µM | 7.5 ± 0.5 s⁻¹ | 0.76 | 
Cc1cc(=O)oc2cc(NC(=O)[C@H](CCCN=C(N)N)NC(=O)[C@H](CCCN=C(N)N)NC(=O)OCc3ccccc3)ccc12 [S6, Cbz-Arg-Arg-AMC] (Cbz-Arg-Arg-{AMC}) |  |  | 0.75 | Km (cruzain [6]): 3.7 ± 0.4 µM; kcat (cruzain [6]): 7.2 ± 0.1 s⁻¹
Cc1cc(=O)oc2cc(NC(=O)C(CCc3ccccc3)NC(=O)C(Cc3ccccc3)NC(=O)N3CCN(C)CC3)ccc12 (stereo not drawn) [S7, NMePip-Phe-hPhe-AMC] | 3.1 ± 0.3 µM | 4.0 ± 0.1 s⁻¹ | 0.42 | 
Cc1cc(=O)oc2cc(NC(=O)[C@H](CCc3ccccc3)NC(=O)[C@H](Cc3ccncc3)NC(=O)OCc3ccccc3)ccc12 [S8, Cbz-(4-Pyr)Ala-hPhe-AMC] (Cbz-[4Pal]-[hPhe]-{AMC}) | 4.6 ± 0.5 µM | 5.3 s⁻¹ and 5.3 ± 0.2 s⁻¹ | 0.55 | 
Cc1cc(=O)oc2cc(NC(=O)[C@H](Cc3ccccc3)NC(=O)[C@H](Cc3ccccc3)NC(=O)OCc3ccccc3)ccc12 [S9, Cbz-Phe-Phe-AMC] (Cbz-Phe-Phe-{AMC}) | 0.34 ± 0.06 µM | 0.26 ± 0.01 s⁻¹ | 0.03 | 
Cc1cc(=O)oc2cc(NC(=O)C(CCc3ccccc3)NC(=O)C(CCCN=C(N)N)NC(=O)OCc3ccccc3)ccc12 (stereo not drawn) [S10, Cbz-Arg-hPhe-AMC] | 6.8 ± 0.4 µM | 4.9 s⁻¹ and 4.9 ± 0.1 s⁻¹ | 0.51 | 
Cc1cc(=O)oc2cc(NC(=O)[C@H](Cc3ccccc3)NC(=O)[C@H](Cc3ccccc3)NC(=O)N3CCN(C)CC3)ccc12 [S11, NMePip-Phe-Phe-AMC] | 14 ± 4 µM | 2.8 ± 0.06 s⁻¹ | 0.29 | 
Cc1cc(=O)oc2cc(NC(=O)C(C)NC(=O)C(Cc3ccccc3)NC(=O)OCc3ccccc3)ccc12 (stereo not drawn) [S12, Cbz-Phe-Ala-AMC] |  |  | 0.09 | Km (cruzain [6]): 38 ± 2 µM; kcat (cruzain [6]): 0.89 ± 0.06 s⁻¹
O=C(Cn1ccnc1[N+](=O)[O-])NCc1ccccc1 [benznidazole] |  |  |  | LD50 (antichagasic potency) [7]: 1500 nM
